Data: the Kinase Knowledgebase extract (Sharma et al. 2016)

What was measured:
[1] = target: PIK3CG (human) (UniProt P48736); experiment: Cell-Based Assay; details: u937
[2] = target: PIK3CB (Human) (UniProt P42338); experiment: Enzyme Assay
[3] = target: PIK3CD (Human) (UniProt O00329); experiment: Enzyme Assay
[4] = target: PIK3CG (human) (UniProt P48736); experiment: Enzyme Assay
[5] = target: PIK3CA (human) (UniProt P42336); experiment: Enzyme Assay
Chain of PIK3CA (human) (P42336 whole entry, looked up): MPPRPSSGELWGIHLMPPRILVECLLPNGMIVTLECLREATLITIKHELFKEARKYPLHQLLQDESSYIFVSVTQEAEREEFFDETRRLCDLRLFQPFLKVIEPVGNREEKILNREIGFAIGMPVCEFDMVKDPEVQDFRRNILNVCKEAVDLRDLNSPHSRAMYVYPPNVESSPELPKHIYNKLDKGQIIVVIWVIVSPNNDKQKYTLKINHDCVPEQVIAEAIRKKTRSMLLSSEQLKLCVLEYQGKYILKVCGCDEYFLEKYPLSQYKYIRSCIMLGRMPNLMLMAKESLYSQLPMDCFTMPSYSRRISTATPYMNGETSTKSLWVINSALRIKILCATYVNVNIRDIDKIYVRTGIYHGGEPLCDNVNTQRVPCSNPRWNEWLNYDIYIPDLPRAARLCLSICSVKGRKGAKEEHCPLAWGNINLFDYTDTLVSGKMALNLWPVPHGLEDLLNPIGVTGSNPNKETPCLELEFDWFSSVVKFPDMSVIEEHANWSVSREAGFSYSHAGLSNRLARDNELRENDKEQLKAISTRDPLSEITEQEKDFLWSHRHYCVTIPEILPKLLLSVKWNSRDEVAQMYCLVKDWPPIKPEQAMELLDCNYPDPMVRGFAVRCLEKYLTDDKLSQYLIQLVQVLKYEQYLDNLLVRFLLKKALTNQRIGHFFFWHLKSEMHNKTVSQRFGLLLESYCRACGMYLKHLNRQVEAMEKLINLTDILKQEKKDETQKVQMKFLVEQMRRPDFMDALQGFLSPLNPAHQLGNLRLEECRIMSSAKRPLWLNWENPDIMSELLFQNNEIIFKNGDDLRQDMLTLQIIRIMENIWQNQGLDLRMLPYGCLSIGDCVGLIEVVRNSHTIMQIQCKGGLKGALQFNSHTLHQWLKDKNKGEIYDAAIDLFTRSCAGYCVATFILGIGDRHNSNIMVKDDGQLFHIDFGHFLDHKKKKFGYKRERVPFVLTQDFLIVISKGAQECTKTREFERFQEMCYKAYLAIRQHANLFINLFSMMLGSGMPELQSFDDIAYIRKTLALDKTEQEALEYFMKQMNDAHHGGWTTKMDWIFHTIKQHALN

Chain of PIK3CG (human) (P48736 whole entry, looked up): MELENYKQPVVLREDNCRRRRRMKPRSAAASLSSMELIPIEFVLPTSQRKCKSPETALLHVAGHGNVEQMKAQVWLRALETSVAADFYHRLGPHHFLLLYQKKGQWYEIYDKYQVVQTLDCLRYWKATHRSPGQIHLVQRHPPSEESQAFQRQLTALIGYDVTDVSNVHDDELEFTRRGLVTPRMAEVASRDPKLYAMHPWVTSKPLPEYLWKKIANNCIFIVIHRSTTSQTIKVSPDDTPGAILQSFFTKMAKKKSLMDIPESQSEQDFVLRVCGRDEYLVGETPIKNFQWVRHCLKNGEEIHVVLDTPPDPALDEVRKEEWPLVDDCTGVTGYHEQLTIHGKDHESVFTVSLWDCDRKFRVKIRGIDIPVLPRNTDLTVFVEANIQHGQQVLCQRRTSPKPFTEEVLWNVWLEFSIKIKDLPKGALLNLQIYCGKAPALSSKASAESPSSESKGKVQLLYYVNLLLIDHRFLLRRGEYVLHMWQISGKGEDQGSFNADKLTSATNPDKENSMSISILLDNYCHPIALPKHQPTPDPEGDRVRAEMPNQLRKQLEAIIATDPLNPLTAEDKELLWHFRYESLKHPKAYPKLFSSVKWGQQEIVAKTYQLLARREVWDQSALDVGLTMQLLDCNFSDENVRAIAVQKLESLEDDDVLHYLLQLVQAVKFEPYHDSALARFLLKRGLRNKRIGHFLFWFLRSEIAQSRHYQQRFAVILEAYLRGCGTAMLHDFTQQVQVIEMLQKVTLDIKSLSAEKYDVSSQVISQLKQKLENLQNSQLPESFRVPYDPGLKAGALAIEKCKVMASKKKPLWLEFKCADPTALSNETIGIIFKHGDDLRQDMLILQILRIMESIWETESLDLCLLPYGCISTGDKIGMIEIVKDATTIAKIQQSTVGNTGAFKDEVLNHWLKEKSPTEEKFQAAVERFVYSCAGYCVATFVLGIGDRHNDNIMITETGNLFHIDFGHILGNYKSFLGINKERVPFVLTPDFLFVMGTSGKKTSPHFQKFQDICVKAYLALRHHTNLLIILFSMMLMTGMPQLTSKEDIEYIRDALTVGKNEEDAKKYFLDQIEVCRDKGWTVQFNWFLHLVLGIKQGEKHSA
Chain of PIK3CD (Human) (O00329 whole entry, looked up): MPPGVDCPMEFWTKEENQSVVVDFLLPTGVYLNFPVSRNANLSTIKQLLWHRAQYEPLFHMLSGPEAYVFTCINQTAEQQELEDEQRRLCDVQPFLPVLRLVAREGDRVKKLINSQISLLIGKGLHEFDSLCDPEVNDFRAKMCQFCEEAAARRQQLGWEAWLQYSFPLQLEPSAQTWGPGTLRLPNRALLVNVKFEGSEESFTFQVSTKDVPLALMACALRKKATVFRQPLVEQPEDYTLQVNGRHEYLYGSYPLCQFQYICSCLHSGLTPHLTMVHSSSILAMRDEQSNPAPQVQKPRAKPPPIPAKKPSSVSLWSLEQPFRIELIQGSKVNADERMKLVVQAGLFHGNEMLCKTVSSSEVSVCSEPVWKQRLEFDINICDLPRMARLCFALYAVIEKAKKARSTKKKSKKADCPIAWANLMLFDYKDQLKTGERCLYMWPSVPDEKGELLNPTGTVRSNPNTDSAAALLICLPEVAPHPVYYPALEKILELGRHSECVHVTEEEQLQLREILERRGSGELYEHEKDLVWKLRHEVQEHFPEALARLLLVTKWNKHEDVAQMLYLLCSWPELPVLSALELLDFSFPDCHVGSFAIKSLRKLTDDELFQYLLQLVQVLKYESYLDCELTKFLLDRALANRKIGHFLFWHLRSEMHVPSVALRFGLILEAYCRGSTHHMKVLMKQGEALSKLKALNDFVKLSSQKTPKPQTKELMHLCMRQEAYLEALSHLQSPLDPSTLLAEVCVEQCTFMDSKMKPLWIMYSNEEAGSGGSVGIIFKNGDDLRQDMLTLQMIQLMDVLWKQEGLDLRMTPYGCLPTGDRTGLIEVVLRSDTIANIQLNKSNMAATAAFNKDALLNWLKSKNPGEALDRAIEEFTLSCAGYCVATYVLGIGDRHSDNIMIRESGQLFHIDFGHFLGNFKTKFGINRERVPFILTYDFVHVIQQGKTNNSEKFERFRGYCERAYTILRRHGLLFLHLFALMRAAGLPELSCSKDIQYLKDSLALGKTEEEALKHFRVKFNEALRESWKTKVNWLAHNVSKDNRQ
Chain of PIK3CB (Human) (P42338 whole entry, looked up): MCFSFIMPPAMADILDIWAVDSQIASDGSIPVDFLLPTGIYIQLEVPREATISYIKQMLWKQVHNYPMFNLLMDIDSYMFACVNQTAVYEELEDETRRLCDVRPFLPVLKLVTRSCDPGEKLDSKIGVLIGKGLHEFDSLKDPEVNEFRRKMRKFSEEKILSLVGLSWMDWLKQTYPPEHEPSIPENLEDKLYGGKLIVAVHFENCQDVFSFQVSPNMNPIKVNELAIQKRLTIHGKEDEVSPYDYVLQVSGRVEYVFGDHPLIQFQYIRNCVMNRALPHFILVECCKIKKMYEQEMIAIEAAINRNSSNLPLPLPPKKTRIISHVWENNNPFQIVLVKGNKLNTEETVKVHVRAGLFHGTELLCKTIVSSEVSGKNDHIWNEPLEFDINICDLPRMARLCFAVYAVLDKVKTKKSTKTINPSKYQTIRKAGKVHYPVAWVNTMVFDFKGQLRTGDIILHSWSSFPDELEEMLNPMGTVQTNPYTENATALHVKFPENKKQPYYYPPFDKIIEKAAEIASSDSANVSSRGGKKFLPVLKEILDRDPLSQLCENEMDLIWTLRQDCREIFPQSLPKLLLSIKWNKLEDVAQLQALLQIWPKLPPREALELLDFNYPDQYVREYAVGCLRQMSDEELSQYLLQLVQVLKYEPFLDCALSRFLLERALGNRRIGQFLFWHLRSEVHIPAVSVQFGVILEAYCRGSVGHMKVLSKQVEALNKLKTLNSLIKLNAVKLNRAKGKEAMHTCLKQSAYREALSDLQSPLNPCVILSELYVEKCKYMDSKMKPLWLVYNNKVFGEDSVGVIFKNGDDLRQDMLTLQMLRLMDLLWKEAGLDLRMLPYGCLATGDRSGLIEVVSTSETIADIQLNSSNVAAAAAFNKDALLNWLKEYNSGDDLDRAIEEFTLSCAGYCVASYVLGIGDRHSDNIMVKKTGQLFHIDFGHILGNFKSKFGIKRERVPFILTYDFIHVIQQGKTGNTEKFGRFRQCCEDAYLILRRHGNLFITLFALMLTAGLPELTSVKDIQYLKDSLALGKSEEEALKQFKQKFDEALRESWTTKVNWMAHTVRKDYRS

| Compound | IC50 [1] [nM] | IC50 [2] [nM] | IC50 [3] [nM] | IC50 [4] [nM] | IC50 [5] [nM] |
| --- | --- | --- | --- | --- | --- |
| Cc1cc(-c2cncc(-c3cc(S(=O)(=O)NC[C@H]4C[C@@H](O)C4)ccc3C)n2)n(C)n1 | 122 | 1900 | 40 | 38 | 100 |
| Cc1ccc(S(=O)(=O)NC2CC3(CC(O)C3)C2)cc1-c1cncc(-c2cn(C)nc2C)n1 (stereo not given) | 22 | 450 | 90 | 13 | 40 |
| Cc1ccc(S(=O)(=O)NC[C@H]2C[C@@H](O)C2)cc1-c1cncc(-c2cn(C)nc2C)n1 | 61 | 630 | 100 | 11 | 90 |
| Cc1ccc(S(=O)(=O)N[C@H]2CC[C@H](O)CC2)cc1-c1cncc(-c2csc(CN3CCOCC3)c2)n1 | 122 | > 9100 | 10 | 6 | 160 |
